Laboratory results from patent US5677419A, “Cyclic vasoactive peptide analogs” (Hoffmann-La Roche Inc., priority 1994, dated 1997).
pEC50: −log10 of the molar value. Where a SMILES comes first, the peptide text is derived from it. Bridges are numbered along the chain shown (N, C = ends). [ ]: non-standard residue; d: D form. Tyr(3-F) = N[C@@H](Cc1ccc(O)c(F)c1)C(=O)O; Tyr(3-OMe) = COc1cc(C[C@H](N)C(=O)O)ccc1O; Phe(4-NH2) = Nc1ccc(C[C@H](N)C(=O)O)cc1; Nle = CCCC[C@H](N)C(=O)O

Legend:
[1] = test system: guinea pig tracheal smooth muscle; experiment: Tracheal relaxant activity of VIP analogs on isolated guinea pig tracheal rings; assay type: cell-based; details: cumulative concentration response, relaxation as % of maximum response to VIP (10^-6 M=100%), three tissues pooled, linear regression
Summary of the method: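 Male guinea pig tracheal rings under 1.5 g resting tension in Krebs at 37° C, 95% O2/5% CO2, isometric tension. Cumulative concentration-response curves; relaxation as % of response to 10^-6 M VIP added at end; three tissues pooled, EC50 by linear regression.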

guinea pigs = experiment: In vivo bronchodilator activity by tracheal instillation against histamine challenge; parameters: species or system guinea pig; details: anesthetized male guinea pigs, inhibition of histamine (i.v.)-induced rise in tracheal pressure
Summary of the method: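 Urethane-anaesthetised male Hartley guinea pigs (400-600 g) received compound in water by intratracheal instillation, then were paralysed, ventilated and challenged with histamine […] i.v. Tracheal pressure change gave % inhibition (≥3 animals/group); ED50 from log dose-response; duration as time until inhibition fell to 40%.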

| Structure (SMILES) | pEC50 [1] | Bronchodilator activity of VIP analogs in guinea pigs, ED50 (guinea pigs) |
| --- | --- | --- |
| CCCC[C@H](NC(=O)[C@H](CCC(N)=O)NC(=O)[C@H](CCCCN)NC(=O)[C@H](CCCNC(=N)N)NC(=O)[C@H](CC(C)C)NC(=O)[C@H](CCCCN)NC(=O)[C@@H](NC(=O)[C@H](Cc1ccc(O)cc1)NC(=O)[C@H](CC(N)=O)NC(=O)[C@H](CCC(=O)O)NC(=O)[C@@H](NC(=O)[C@H](Cc1ccccc1)NC(=O)[C@@H](NC(=O)[C@H](C)NC(=O)[C@H](CC(=O)O)NC(=O)[C@H](C)NC(=O)[C@H](Cc1c[nH]cn1)NC(C)=O)C(C)C)[C@@H](C)O)[C@@H](C)O)C(=O)N[C@@H](C)C(=O)N[C@@H](C)C(=O)N[C@@H](CCCCN)C(=O)N[C@H]1CCCCNC(=O)C[C@@H](C(=O)N[C@@H](CC(C)C)C(=O)N[C@@H](CCCCN)C(=O)N[C@@H](CCCCN)C(=O)NCC(=O)NCC(=O)N[C@H](C(N)=O)[C@@H](C)O)NC(=O)[C@H](CC(N)=O)NC(=O)[C@H](CC(C)C)NC(=O)[C@H](Cc2ccc(O)cc2)NC1=O [SEQ ID NO:51, Ac-[Ala^2,Glu^8,Lys^12,Nle^17,Ala^19,Asp^25,Leu^26,Lys^27,28,Gly^29,30,Thr^31]-VIP cyclo (Lys^21 →Asp^25)] (Ac-HADAVFTENYTKLRKQ[Nle]AAKKYLNDLKKGGT-NH2; lactam 21-25) | 9.04 | 0.1 μg |
| CCCC[C@H](NC(=O)[C@H](CCC(N)=O)NC(=O)[C@H](CCCCN)NC(=O)[C@H](CCCNC(=N)N)NC(=O)[C@H](CC(C)C)NC(=O)[C@H](CCCCN)NC(=O)[C@@H](NC(=O)[C@H](Cc1ccc(O)cc1)NC(=O)[C@H](CC(N)=O)NC(=O)[C@H](CCC(=O)O)NC(=O)[C@@H](NC(=O)[C@H](Cc1ccccc1)NC(=O)[C@@H](NC(=O)[C@H](C)NC(=O)[C@H](CC(=O)O)NC(=O)[C@H](CO)NC(=O)[C@H](Cc1c[nH]cn1)NC(C)=O)C(C)C)[C@@H](C)O)[C@@H](C)O)C(=O)N[C@@H](C)C(=O)N[C@@H](C)C(=O)N[C@@H](CCCCN)C(=O)N[C@H]1CCCCNC(=O)C[C@@H](C(=O)N[C@@H](CC(C)C)C(=O)N[C@@H](CCCCN)C(=O)N[C@@H](CCCCN)C(=O)NCC(=O)NCC(=O)N[C@H](C(N)=O)[C@@H](C)O)NC(=O)[C@H](CC(N)=O)NC(=O)[C@H](CC(C)C)NC(=O)[C@H](Cc2ccc(O)cc2)NC1=O [SEQ ID NO:52, Ac-[Glu^8,Lys^12,Nle^17,Ala^19,Asp^25,Leu^26,Lys^27,28,Gly^29,30,Thr^31]-VIP cyclo (Lys^21 →Asp^25)] (Ac-HSDAVFTENYTKLRKQ[Nle]AAKKYLNDLKKGGT-NH2; lactam 21-25) | 9.46 | 0.1 μg |
| CCCC[C@H](NC(=O)[C@H](CCC(N)=O)NC(=O)[C@H](CCCCN)NC(=O)[C@H](CCCNC(=N)N)NC(=O)[C@H](CC(C)C)NC(=O)[C@H](CCCCN)NC(=O)[C@@H](NC(=O)[C@H](Cc1ccc(N)cc1)NC(=O)[C@H](CC(N)=O)NC(=O)[C@H](CC(=O)O)NC(=O)[C@@H](NC(=O)[C@H](Cc1ccccc1)NC(=O)[C@@H](NC(=O)[C@H](C)NC(=O)[C@H](CC(=O)O)NC(=O)[C@H](CO)NC(=O)[C@H](Cc1c[nH]cn1)NC(C)=O)C(C)C)[C@@H](C)O)[C@@H](C)O)C(=O)N[C@@H](C)C(=O)N[C@@H](C)C(=O)N[C@@H](CCCCN)C(=O)N[C@H]1CCCCNC(=O)C[C@@H](C(=O)N[C@H](C(=O)N[C@@H](CC(C)C)C(=O)N[C@H](C(N)=O)[C@@H](C)O)C(C)C)NC(=O)[C@H](CC(N)=O)NC(=O)[C@H](CC(C)C)NC(=O)[C@H](Cc2ccc(O)cc2)NC1=O [SEQ ID NO:54, Ac-[p-NH2 -Phe^10,Lys^12,Nle^17,Ala^19,Asp^25,Val^26,Thr^28]-VIP cyclo (Lys^21 →Asp^25)] (Ac-HSDAVFTDN[Phe(4-NH2)]TKLRKQ[Nle]AAKKYLNDVLT-NH2; lactam 21-25) | 9.02 | 0.35 μg |
| CCCC[C@H](NC(=O)[C@H](CCC(N)=O)NC(=O)[C@H](CCCCN)NC(=O)[C@H](CCCNC(=N)N)NC(=O)[C@H](CC(C)C)NC(=O)[C@H](CCCCN)NC(=O)[C@@H](NC(=O)[C@H](Cc1ccc(O)cc1)NC(=O)[C@H](CC(N)=O)NC(=O)[C@H](CC(=O)O)NC(=O)[C@@H](NC(=O)[C@H](Cc1ccccc1)NC(=O)[C@@H](NC(=O)[C@H](C)NC(=O)[C@H](CC(=O)O)NC(=O)[C@H](CO)NC(=O)[C@H](Cc1c[nH]cn1)NC(C)=O)C(C)C)[C@@H](C)O)[C@@H](C)O)C(=O)N[C@@H](C)C(=O)N[C@@H](C)C(=O)N[C@@H](CCCCN)C(=O)N[C@H]1CCCCNC(=O)C[C@@H](C(=O)N[C@H](C(=O)N[C@@H](CC(C)C)C(=O)N[C@H](C(N)=O)[C@@H](C)O)C(C)C)NC(=O)[C@H](CC(N)=O)NC(=O)[C@H](CC(C)C)NC(=O)[C@H](Cc2ccc(O)c(OC)c2)NC1=O [SEQ ID NO:55, Ac-[Lys^12,Nle^17,Ala^19,m-OCH3 -Tyr^22,Asp^25,Val^26,Thr^28]-VIP cyclo (Lys^21 →Asp^25)] (Ac-HSDAVFTDNYTKLRKQ[Nle]AAKK[Tyr(3-OMe)]LNDVLT-NH2; lactam 21-25) | 9.51 | 0.14 μg |
| CCCC[C@H](NC(=O)[C@H](CCC(N)=O)NC(=O)[C@H](CCCCN)NC(=O)[C@H](CCCNC(=N)N)NC(=O)[C@H](CC(C)C)NC(=O)[C@H](CCCCN)NC(=O)[C@@H](NC(=O)[C@H](Cc1ccc(O)cc1)NC(=O)[C@H](CC(N)=O)NC(=O)[C@H](CC(=O)O)NC(=O)[C@@H](NC(=O)[C@H](Cc1ccccc1)NC(=O)[C@@H](NC(=O)[C@H](C)NC(=O)[C@H](CC(=O)O)NC(=O)[C@H](CO)NC(=O)[C@H](Cc1c[nH]cn1)NC(C)=O)C(C)C)[C@@H](C)O)[C@@H](C)O)C(=O)N[C@@H](C)C(=O)N[C@@H](C)C(=O)N[C@@H](CCCCN)C(=O)N[C@H]1CCCCNC(=O)C[C@@H](C(=O)N[C@H](C(=O)N[C@@H](CC(C)C)C(=O)N[C@H](C(N)=O)[C@@H](C)O)C(C)C)NC(=O)[C@H](CC(N)=O)NC(=O)[C@H](CC(C)C)NC(=O)[C@H](Cc2ccc(O)c(F)c2)NC1=O [SEQ ID NO:56, Ac-[Lys^12,Nle^17,Ala^19,m-F-L-Tyr^22,Asp^25,Val^26,Thr^28]-VIP cyclo (Lys^21 →Asp^25)] (Ac-HSDAVFTDNYTKLRKQ[Nle]AAKK[Tyr(3-F)]LNDVLT-NH2; lactam 21-25) | 9.28 | 7.2 μg |

Now from value to compound, other results behind:

| pEC50 [1] | Structure (SMILES) | Bronchodilator activity of VIP analogs in guinea pigs, ED50 (guinea pigs) |
| --- | --- | --- |
| 9.11 | CCCC[C@H](NC(=O)[C@H](CCC(N)=O)NC(=O)[C@H](CCCCN)NC(=O)[C@H](CCCNC(=N)N)NC(=O)[C@H](CC(C)C)NC(=O)[C@H](CCCCN)NC(=O)[C@@H](NC(=O)[C@H](Cc1ccc(O)cc1)NC(=O)[C@H](CC(N)=O)NC(=O)[C@H](CCC(=O)O)NC(=O)[C@@H](NC(=O)[C@H](Cc1ccccc1)NC(=O)[C@@H](NC(=O)[C@H](C)NC(=O)[C@H](CC(=O)O)NC(=O)[C@H](C)NC(=O)[C@H](Cc1c[nH]cn1)NC(C)=O)C(C)C)[C@@H](C)O)[C@@H](C)O)C(=O)N[C@@H](C)C(=O)N[C@@H](C)C(=O)N[C@@H](CCCCN)C(=O)N[C@H]1CCCCNC(=O)C[C@@H](C(=O)N[C@@H](CC(C)C)C(=O)N[C@@H](CCCCN)C(=O)N[C@@H](CCCCN)C(N)=O)NC(=O)[C@H](CC(N)=O)NC(=O)[C@H](CC(C)C)NC(=O)[C@H](Cc2ccc(O)cc2)NC1=O [SEQ ID NO:53, Ac-[Ala^2,Glu^8,Lys^12,Nle^17,Ala^19,Asp^25,Leu^26,Lys^27,28]-VIP cyclo (Lys^21 →Asp^25)] (Ac-HADAVFTENYTKLRKQ[Nle]AAKKYLNDLKK-NH2; lactam 21-25) | 0.14 μg |
| 9.54 | CCCC[C@H](NC(=O)[C@H](CCC(N)=O)NC(=O)[C@H](CCCCN)NC(=O)[C@H](CCCNC(=N)N)NC(=O)[C@H](CC(C)C)NC(=O)[C@H](CCCCN)NC(=O)[C@@H](NC(=O)[C@H](Cc1ccc(O)cc1)NC(=O)[C@H](CC(N)=O)NC(=O)[C@H](CCC(=O)O)NC(=O)[C@@H](NC(=O)[C@H](Cc1ccccc1)NC(=O)[C@@H](NC(=O)[C@H](C)NC(=O)[C@H](CC(=O)O)NC(=O)[C@H](CO)NC(=O)[C@H](Cc1c[nH]cn1)NC(C)=O)C(C)C)[C@@H](C)O)[C@@H](C)O)C(=O)N[C@@H](C)C(=O)N[C@@H](C)C(=O)N[C@@H](CCCCN)C(=O)N[C@H]1CCCCNC(=O)C[C@@H](C(=O)N[C@@H](CC(C)C)C(=O)N[C@@H](CCCCN)C(=O)N[C@@H](CCCCN)C(N)=O)NC(=O)[C@H](CC(N)=O)NC(=O)[C@H](CC(C)C)NC(=O)[C@H](Cc2ccc(O)c(OC)c2)NC1=O [SEQ ID NO:57, Ac-[Glu^8,Lys^12,Nle^17,Ala^19,m-OCH3 -Tyr^22,Asp^25,Leu^26,Lys^27,28]-VIP cyclo (Lys^21 →Asp^25)] (Ac-HSDAVFTENYTKLRKQ[Nle]AAKK[Tyr(3-OMe)]LNDLKK-NH2; lactam 21-25) | 0.019 μg |
| 9.51 | CCCC[C@H](NC(=O)[C@H](CCC(N)=O)NC(=O)[C@H](CCCCN)NC(=O)[C@H](CCCNC(=N)N)NC(=O)[C@H](CC(C)C)NC(=O)[C@H](CCCCN)NC(=O)[C@@H](NC(=O)[C@H](Cc1ccc(O)cc1)NC(=O)[C@H](CC(N)=O)NC(=O)[C@H](CCC(=O)O)NC(=O)[C@@H](NC(=O)[C@H](Cc1ccccc1)NC(=O)[C@@H](NC(=O)[C@H](C)NC(=O)[C@H](CC(=O)O)NC(=O)[C@H](CO)NC(=O)[C@H](Cc1c[nH]cn1)NC(C)=O)C(C)C)[C@@H](C)O)[C@@H](C)O)C(=O)N[C@@H](C)C(=O)N[C@@H](C)C(=O)N[C@@H](CCCCN)C(=O)N[C@H]1CCCCNC(=O)C[C@@H](C(=O)N[C@@H](CC(C)C)C(=O)N[C@@H](CCCCN)C(=O)N[C@@H](CCCCN)C(N)=O)NC(=O)[C@H](CC(N)=O)NC(=O)[C@H](CC(C)C)NC(=O)[C@H](Cc2ccc(O)c(F)c2)NC1=O [SEQ ID NO:58, Ac-[Glu^8,Lys^12,Nle^17,Ala^19,m-F-L-Tyr^22,Asp^25,Leu^26,Lys^27,28]-VIP cyclo (Lys^21 →Asp^25)] (Ac-HSDAVFTENYTKLRKQ[Nle]AAKK[Tyr(3-F)]LNDLKK-NH2; lactam 21-25) | 0.03 μg |
